“Also recorded” adds a separate entry of the source. Where a SMILES comes first, the peptide text is derived from it. The star is where a group is joined. Palmitoyl = CCCCCCCCCCCCCCCC(=O)*
Tests used:
[1] = biological target: T1, PAR1 (Mus musculus, UniProt P30558); assay: myocardial ischemia (30 min left coronary artery occlusion) / 2 h reperfusion in mice; type: in vivo; details: 10 mg/kg sc before ischemia
T1 construct: endogenous in cells; host or cells: male C57BL/6N mice, in vivo
T1 sequence (P30558 22-430): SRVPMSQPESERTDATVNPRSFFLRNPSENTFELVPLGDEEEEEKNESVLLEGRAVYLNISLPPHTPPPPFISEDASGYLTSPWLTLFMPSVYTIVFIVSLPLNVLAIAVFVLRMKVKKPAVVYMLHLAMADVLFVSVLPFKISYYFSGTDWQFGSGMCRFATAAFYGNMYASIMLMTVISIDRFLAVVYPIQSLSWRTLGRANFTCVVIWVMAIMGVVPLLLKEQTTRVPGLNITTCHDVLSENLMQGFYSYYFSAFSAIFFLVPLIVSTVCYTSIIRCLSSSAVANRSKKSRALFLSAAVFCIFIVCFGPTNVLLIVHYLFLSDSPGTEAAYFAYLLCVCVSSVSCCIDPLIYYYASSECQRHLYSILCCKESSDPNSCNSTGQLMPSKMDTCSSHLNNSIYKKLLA
Description: FIGS. 1A-E show protection against cardiac myocardial injury by PZ-128 in mice. […] Images were quantified using ImageJ and adjusted by weight of each cardiac slice. Data are shown as mean±SD and analyzed by two-tailed Student's t-test: **p<0.01, ***p<0.001.
(§1) A role of PAR1 in directly mediating cardiac ischemic myonecrosis—independent of established platelet-dependent effects (Strande et al., Basic Res. Cardiol. 102(4):350-358, 2007)—was also examined. […] Mice (n=7) were treated with vehicle or 10 mg/kg PZ-128 (subcutaneous; sc) just prior to ischemic injury. As shown in FIG. 1a-d, PZ-128-treated mice had 51-62% reductions in mean cardiac Infarct Area (p<0.01), Area At Risk (p<0.01), and Total Ischemic Area (p<0.0001) compared to vehicle-treated mice. […] Using echocardiography after 3 days of reperfusion, there was a significant increase in left ventricular mass (p<0.05) in vehicle compared to PZ-128 treated cohorts, with no difference in left ventricular mass between baseline and 3 days in the PZ-128 cohort (FIG. 2). […] Previous pharmacokinetic studies of subcutaneously administered PZ-128 in mice were the basis of this 10 mg/kg dose in mice (Cisowski et al., Am. J. Pathol. 179(1):513-523, 2011), selected to match the 0.3-0.5 mg/kg doses administered in humans.
Eight-week male C57BL/6N mice were vehicle (20% DMSO) or 10 mg/kg PZ-128 1 h before cardiac surgery (n=7 per group). The left coronary artery was occluded for 30 min with a ligature left in place during reperfusion. Blood flow was restored for 2 h, then the left coronary artery was reoccluded, and 5% Evans blue dye was injected via the aorta. Hearts were frozen and sectioned in OTC, before incubation in TTC for 10 min at 37° C. (a) Sections were digitally scanned and the area of white (b—Infarct area=1), red (c—Area at Risk=AAR), white+red (d—total Ischemic area), and blue (e—Reperfusion area=R) quantified using ImageJ and adjusted by weight of each cardiac slice. Data are shown as mean±SD and analyzed by two-tailed Student's t-test: **p<0.01, ***p<0.001.

[2] = biological target: T1, PAR1; assay: echocardiography after 3 days reperfusion following 30 min myocardial ischemia in mice; type: in vivo; details: 10 mg/kg sc once daily, n=4
Description: as §1
A subset of male C57BL6N mice from each group subjected to 30 min left coronary artery ischemia (FIGS. 1A-1E) were reperfused for 3 days (n=4 vehicle, n=4 10 mg/kg PZ-128 sc once daily).

[3] = biological target: T2, PAR1 (Homo sapiens, UniProt P25116); details: subjects with coronary artery disease; cited from earlier work
T2 construct: delivered intravenously in 100 patients with coronary artery disease (CAD) and acute coronary syndrome (ACS) undergoing cardiac catheterization; endogenous in cells; host or cells: patients of the TRIP-PCI trial (platelets ex vivo; whole body in vivo)
T2 sequence (P25116 22-425): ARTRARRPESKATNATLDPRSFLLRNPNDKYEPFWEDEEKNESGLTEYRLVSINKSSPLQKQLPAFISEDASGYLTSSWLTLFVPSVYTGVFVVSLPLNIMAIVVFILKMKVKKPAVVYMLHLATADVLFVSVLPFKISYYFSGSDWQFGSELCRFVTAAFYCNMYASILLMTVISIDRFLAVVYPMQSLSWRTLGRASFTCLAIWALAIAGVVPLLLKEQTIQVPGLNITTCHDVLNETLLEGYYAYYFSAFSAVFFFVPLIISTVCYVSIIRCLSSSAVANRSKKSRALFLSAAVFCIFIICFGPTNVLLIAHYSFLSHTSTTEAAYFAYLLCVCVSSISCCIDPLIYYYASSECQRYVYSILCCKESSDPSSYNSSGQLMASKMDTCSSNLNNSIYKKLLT

CCCCCCCCCCCCCCCC(=O)N[C@@H](CCCCN)C(=O)N[C@@H](CCCCN)C(=O)N[C@@H](CO)C(=O)N[C@@H](CCCNC(=N)N)C(=O)N[C@@H](C)C(=O)N[C@@H](CC(C)C)C(=O)N[C@@H](Cc1ccccc1)C(N)=O [PZ-128, Palmitate-KKSRALF-NH2] (Palmitoyl-KKSRALF-NH2)
reduction in mean Total Ischemic Area vs vehicle ([1]; n=7, p<0.0001): 51-62%
increase in total area of cardiac muscle able to be reperfused vs vehicle ([1]; n=7, p<0.001): 50%
reduction in mean Area At Risk vs vehicle ([1]; n=7, p<0.01): 51-62%
reduction in mean cardiac Infarct Area vs vehicle ([1]; n=7, p<0.01): 51-62%
ejection fraction at 3 days compared to baseline [2]: no significant reductions; also recorded: maintained baseline
fractional shortening at 3 days compared to baseline [2]: no significant reductions; also recorded: maintained baseline
left ventricular mass, baseline vs 3 days [2]: no difference; also recorded: no significant differences
platelet activation and hemostasis in phase 1 [3]: suppresses platelet activation without effects on hemostasis
